Source: the NIST ThermoML archive (doi:10.1021/je900596d)

Conditions: 362.9 K, Liquid, Vibrating tube method

FC(F)=C(F)C(F)(F)F [hexafluoropropene]
Conditions | mass density [kg/m3]
5080.8 kPa | 959.79
5112.9 kPa | 961.66
5146 kPa | 963.53
5179.5 kPa | 965.35
5212.8 kPa | 967.09
5246.7 kPa | 968.92
5279.6 kPa | 970.74
5314.8 kPa | 972.51
5347.4 kPa | 974.13
5381.2 kPa | 975.88
5415.7 kPa | 977.6
5518.8 kPa | 982.72
5553.4 kPa | 984.34
5588.2 kPa | 985.96
5623.1 kPa | 987.64
5657.5 kPa | 989.1
5693.5 kPa | 990.75
5727.5 kPa | 992.15
5764.4 kPa | 993.86
5798.2 kPa | 995.17
5832.3 kPa | 996.63
5864.9 kPa | 997.97
5898.1 kPa | 999.35
5930.9 kPa | 1000.69
5965 kPa | 1002.21
6035.1 kPa | 1005.02
6069.8 kPa | 1006.31
6105.1 kPa | 1007.76
6137.3 kPa | 1008.98
6172 kPa | 1010.25
6204.9 kPa | 1011.55
6239.5 kPa | 1012.84
6274 kPa | 1014.15
6308.5 kPa | 1015.34
6343.7 kPa | 1016.69
6377.6 kPa | 1017.96
6413.1 kPa | 1019.11
6447.2 kPa | 1020.3
6480.8 kPa | 1021.47
6516.3 kPa | 1022.68
6550 kPa | 1023.83
6584.4 kPa | 1025.06
6618.1 kPa | 1026.09
6653.8 kPa | 1027.34
6686.8 kPa | 1028.37
6720.5 kPa | 1029.53
6754.6 kPa | 1030.75
6789.1 kPa | 1031.78
6824.9 kPa | 1032.91
6860.3 kPa | 1034.08
6893.3 kPa | 1035.1
6959.4 kPa | 1037.09
6993.3 kPa | 1038.11
7029.7 kPa | 1039.21
7062.9 kPa | 1040.15
7097.9 kPa | 1041.26
7134 kPa | 1042.28
7168.5 kPa | 1043.39
7202.4 kPa | 1044.3
7237.6 kPa | 1045.38
7273.1 kPa | 1046.4
7307.6 kPa | 1047.38
7378 kPa | 1049.33
7411.6 kPa | 1050.3
7482.4 kPa | 1052.26
7514.7 kPa | 1053.12
7547 kPa | 1053.95
7581.8 kPa | 1054.97
7615.4 kPa | 1055.85
7651.7 kPa | 1056.85
7689.7 kPa | 1057.93
7725.6 kPa | 1058.74
7762.3 kPa | 1059.79
7796.7 kPa | 1060.54
7833.4 kPa | 1061.54
7869.9 kPa | 1062.44
7906.3 kPa | 1063.38
7940.8 kPa | 1064.3
7976.7 kPa | 1065.12
8010.3 kPa | 1065.98
8045.2 kPa | 1066.87
8081.6 kPa | 1067.62
8115 kPa | 1068.6
8149.9 kPa | 1069.37
8185.9 kPa | 1070.21
8223.3 kPa | 1071.09
8281.3 kPa | 1072.48
8320.9 kPa | 1073.52
8358.3 kPa | 1074.27
8396.8 kPa | 1075.12
8431.8 kPa | 1075.97
8468.6 kPa | 1076.79
8505.7 kPa | 1077.66
8541.8 kPa | 1078.5
8577.3 kPa | 1079.34
8611.7 kPa | 1080.05
8649.3 kPa | 1080.92
8689.4 kPa | 1081.74
8724.6 kPa | 1082.52
8800.2 kPa | 1084.14
8834.9 kPa | 1084.87
8868.8 kPa | 1085.56
8902.9 kPa | 1086.27
8937.5 kPa | 1087.05
8971.8 kPa | 1087.76
9005.2 kPa | 1088.42
9039.7 kPa | 1089.26
9073.1 kPa | 1089.94
9106.5 kPa | 1090.69
9140.8 kPa | 1091.37
9173.4 kPa | 1092.03
9205.8 kPa | 1092.74
9239.9 kPa | 1093.42
9274.7 kPa | 1094.03
9308.6 kPa | 1094.75
9341.7 kPa | 1095.45
9377.4 kPa | 1096.15
9410.8 kPa | 1096.73
9445.5 kPa | 1097.46
9479.4 kPa | 1098.06
9548.7 kPa | 1099.5
9582.4 kPa | 1100.15
9618.6 kPa | 1100.84
9652.6 kPa | 1101.51
9687.1 kPa | 1102.18
9721.9 kPa | 1102.81
9756.1 kPa | 1103.39
9789.2 kPa | 1104.04
9822.6 kPa | 1104.65
9858.4 kPa | 1105.3
9893.4 kPa | 1106.05
9929.5 kPa | 1106.67
9963.2 kPa | 1107.25
9996.5 kPa | 1107.93
